According to patent US11147272B2, “Pyridone compounds and agricultural and horticultural fungicides comprising the same as active ingredients” (MITSUI CHEMICALS AGRO, INC., priority 2017, dated 2021):

What was measured:
Plasmopara viticola = assay: Test Example G: Downy mildew on vine; details: Downy mildew on vine (Neomuscat); 250 ppm spray, 2.5 ml/pot; assessed 7 to 10 days after inoculation
[1] = system: Colletotrichum orbiculare; assay: Test Example H: Anthracnose on cucumber; details: Anthracnose on cucumber (Sagami Hanjiro); 250 ppm spray, 2.5 ml/pot; assessed 6 to 10 days after inoculation
Magnaporthe grisea = assay: whole plant or invertebrate; format: in vivo; details: Blast on rice; class of control value
Alternaia brassicicola = assay: Test Example C: Alternaria sooty spot on cabbage; format: in vivo; details: Alternaria sooty spot on cabbage; class of control value
Source text: Seeds of a test plant (cabbage variety: Shikidori) were planted and cultivated until the cotyledons extended.
<Control Value> Control value=100{1−(n/3)}

Phytophthora infestans = assay: whole plant or invertebrate; format: in vivo; details: Late blight on tomato; class of control value
Botrytis cinerea = assay: Test Example B: Gray mold on tomato; details: Gray mold on tomato; class of control value
Puccinia recondita = assay: Test Example E: Brown rust on wheat; format: in vivo; details: Brown rust on wheat; class of control value
[2] = system: Blumeria graminis f. sp. hordei; assay: Test Example D: Powdery mildew on barley; details: Powdery mildew on barley; class of control value

Row | Structure (SMILES) | Test G control value class (Plasmopara viticola) | Test H control value class [1] | Test A control value class (Magnaporthe grisea) | Test C control value class (Alternaia brassicicola) | Test F control value class (Phytophthora infestans) | Test B control value class (Botrytis cinerea) | Test E control value class (Puccinia recondita) | Test D control value class [2]
1 | CCN(Cc1cc(Cl)c(=O)n(CC)c1-c1c(F)cc(OC)cc1F)OC [compound 152] | H (more than 50% control value) | H (more than 50% control value) | H (more than 50% control value) | H (more than 50% control value) | L (50% or less control value) | H (more than 50% control value) | H (more than 50% control value) | H (more than 50% control value)
2 | CCn1c(-c2c(F)cc(OC)cc2F)c(C(C)(O)CC(C)C)cc(Cl)c1=O (centres unmarked) [compound 153] | H (more than 50% control value) | H (more than 50% control value) | L (50% or less control value) | H (more than 50% control value) | L (50% or less control value) | H (more than 50% control value) | H (more than 50% control value) | H (more than 50% control value)
3 | CCn1c(-c2c(F)cc(F)cc2F)c(C(C)(O)CC(C)C)cc(Cl)c1=O (centres unmarked) [compound 154] | H (more than 50% control value) | H (more than 50% control value) | H (more than 50% control value) | H (more than 50% control value) | L (50% or less control value) | H (more than 50% control value) | H (more than 50% control value) | H (more than 50% control value)
4 | CC(C)Cc1cc(Cl)c(=O)n(C)c1-c1ccc(F)cc1 [compound 155] | H (more than 50% control value) | L (50% or less control value) | L (50% or less control value) | H (more than 50% control value) | L (50% or less control value) | H (more than 50% control value) | H (more than 50% control value) | H (more than 50% control value)
5 | CC(C)Cc1cc(Br)c(=O)n(C)c1-c1ccc(F)cc1 [compound 156] | L (50% or less control value) | L (50% or less control value) | H (more than 50% control value) | H (more than 50% control value) | L (50% or less control value) | H (more than 50% control value) | H (more than 50% control value) | H (more than 50% control value)
6 | CCn1c(-c2ccc(Cl)cc2F)c(CC(C)C)ccc1=O [compound 157] | H (more than 50% control value) | L (50% or less control value) | H (more than 50% control value) | H (more than 50% control value) | L (50% or less control value) | H (more than 50% control value) | H (more than 50% control value) | H (more than 50% control value)
7 | CCn1c(-c2ccc(Cl)cc2F)c(CC(C)C)cc(Cl)c1=O [compound 158] | H (more than 50% control value) | H (more than 50% control value) | H (more than 50% control value) | H (more than 50% control value) | L (50% or less control value) | H (more than 50% control value) | H (more than 50% control value) | H (more than 50% control value)
8 | CCn1c(-c2ccc(Cl)cc2F)c(CC(C)C)cc(Br)c1=O [compound 159] | H (more than 50% control value) | H (more than 50% control value) | H (more than 50% control value) | H (more than 50% control value) | L (50% or less control value) | H (more than 50% control value) | H (more than 50% control value) | H (more than 50% control value)
9 | CCn1c(-c2c(F)cc(F)cc2F)c(C(=O)CC(C)C)cc(Cl)c1=O [compound 160] | H (more than 50% control value) | H (more than 50% control value) | L (50% or less control value) | H (more than 50% control value) | L (50% or less control value) | H (more than 50% control value) | H (more than 50% control value) | H (more than 50% control value)
10 | CCOC(C)(C)c1cc(Cl)c(=O)n(CC)c1-c1c(F)cc(F)cc1F [compound 161] | H (more than 50% control value) | H (more than 50% control value) | H (more than 50% control value) | H (more than 50% control value) | L (50% or less control value) | H (more than 50% control value) | H (more than 50% control value) | H (more than 50% control value)
11 | CCOC(C)(C)c1cc(Cl)c(=O)n(CC)c1-c1c(F)cc(OC)cc1F [compound 162] | H (more than 50% control value) | H (more than 50% control value) | H (more than 50% control value) | H (more than 50% control value) | L (50% or less control value) | H (more than 50% control value) | H (more than 50% control value) | H (more than 50% control value)
12 | CCn1c(-c2c(F)cc(F)cc2F)c(CC(C)(C)C)cc(Cl)c1=O [compound 169] | H (more than 50% control value) | H (more than 50% control value) | H (more than 50% control value) | H (more than 50% control value) | H (more than 50% control value) | H (more than 50% control value) | H (more than 50% control value) | H (more than 50% control value)
13 | CCn1c(-c2c(F)cc(F)cc2F)c(C(=O)C(C)(C)C)cc(Cl)c1=O [compound 173] | L (50% or less control value) | H (more than 50% control value) | L (50% or less control value) | H (more than 50% control value) | L (50% or less control value) | H (more than 50% control value) | H (more than 50% control value) | H (more than 50% control value)
14 | CCn1c(-c2ccc(Br)cc2)c(CC(C)C)ccc1=O [compound 175] | L (50% or less control value) | L (50% or less control value) | L (50% or less control value) | L (50% or less control value) | L (50% or less control value) | H (more than 50% control value) | H (more than 50% control value) | H (more than 50% control value)
15 | CCn1c(-c2ccc(F)cc2Cl)c(C2CCCCC2)ccc1=O [compound 176] | L (50% or less control value) | L (50% or less control value) | H (more than 50% control value) | H (more than 50% control value) | H (more than 50% control value) | H (more than 50% control value) | H (more than 50% control value) | H (more than 50% control value)
16 | CCn1c(-c2ccc(Br)cc2)c(CC(C)C)cc(Cl)c1=O [compound 177] | L (50% or less control value) | L (50% or less control value) | L (50% or less control value) | H (more than 50% control value) | L (50% or less control value) | H (more than 50% control value) | H (more than 50% control value) | L (50% or less control value)
